Data taken from US20250242064A1, “CXCR4-TARGETING COMPOUNDS, AND METHODS OF MAKING AND USING THE SAME” (PROVINCIAL HEALTH SERVICES AUTHORITY, priority 2022, published 2025).
Where a SMILES comes first, the peptide text is derived from it. Bridges are numbered along the chain shown (N, C = ends). Side-chain parts run from the residue outwards. [ ]: non-standard residue; d: D form. The star is where a group is joined. X6 = COc1ccc(CCCC(=O)NCCCC[C@H](NC(=O)[C@H](CS(=O)(=O)O)NC(=O)CN2CCN(CC(=O)O)CCN(CC(=O)O)CCN(CC(=O)O)CC2)C(=O)*)cc1; X7 = COc1ccc(CCCC(=O)NCCCC[C@H](NC(=O)CN2CCN(CC(=O)O)CCN(CC(=O)O)CCN(CC(=O)O)CC2)C(=O)*)cc1; 2Nal = N[C@@H](Cc1ccc2ccccc2c1)C(=O)O; Lys(iPr) = CC(C)NCCCC[C@H](N)C(=O)O; Cya = N[C@@H](CS(=O)(=O)O)C(=O)O

Target: CXCR4 (Homo sapiens, UniProt P61073)
Assay: Competitive binding assay, [125I]SDF-1α displacement on CHO:CXCR4 cells
Set-up: expressed in transfected cells; host or cells: CHO:CXCR4 cells
Conditions: [125I]SDF-1α 0.01 nM, 1 h at 27° C., read-out: IC50 (nM), binding affinity for hCXCR4
Procedure: CHO:CXCR4 cells were seeded at a density of 1×10^5 cells/well in 24-well poly-D-lysine coated plates (Corning BioCoat) and incubated with [^125I]SDF-1α (0.01 nM, PerkinElmer) and competing nonradioactive ligands ([…]). The cells, radioligand, and competing peptides were incubated for 1 h at 27° C. with moderate shaking. Following the incubation period, the supernatant was aspirated, followed by three washes with 1 mL of ice-cold PBS. Cells were harvested with 200 μL of trypsin and counted on a y counter. Data were plotted in GraphPad Prism 7 to determine IC50 values (GraphPad Software, Inc., La Jolla, CA). The values are reported as mean±standard deviation.

Sequence of CXCR4 (P61073 whole entry): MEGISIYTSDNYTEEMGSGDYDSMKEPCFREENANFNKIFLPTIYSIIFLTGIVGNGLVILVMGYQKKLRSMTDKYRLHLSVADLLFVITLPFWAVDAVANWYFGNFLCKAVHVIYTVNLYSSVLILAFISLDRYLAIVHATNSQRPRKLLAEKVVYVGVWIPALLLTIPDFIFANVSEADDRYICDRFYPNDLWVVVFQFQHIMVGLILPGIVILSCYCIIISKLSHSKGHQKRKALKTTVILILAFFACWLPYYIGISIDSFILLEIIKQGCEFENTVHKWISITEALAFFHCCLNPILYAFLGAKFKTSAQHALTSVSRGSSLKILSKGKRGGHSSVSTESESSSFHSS

Structure (SMILES) | IC50 [nM]
COc1ccc(CCCC(=O)NCCCC[C@H](NC(=O)CN2CCN(CC(=O)O)CCN(CC(=O)O)CCN(CC(=O)O)CC2)C(=O)N[C@@H](CS(=O)(=O)O)C(=O)NCCCC[C@@H]2NC(=O)CC[C@H](C(=O)N[C@@H](CCCCNC(C)C)C(N)=O)NC(=O)[C@@H](C)NC(=O)[C@H](Cc3ccc4ccccc4c3)NC(=O)[C@@H](CCCNC(=N)N)NC(=O)[C@H](CCCCNC(C)C)NC(=O)[C@H](Cc3ccc(O)cc3)NC2=O)cc1 [BL34L6] (K([Cya-X7])Y[Lys(iPr)][dR][2Nal][dA][dE][Lys(iPr)]-NH2; lactam N-7) | 10 to 50
COc1ccc(CCCC(=O)NCCCC[C@H](NC(=O)[C@H](CS(=O)(=O)O)NC(=O)CN2CCN(CC(=O)O)CCN(CC(=O)O)CCN(CC(=O)O)CC2)C(=O)NCCCC[C@@H]2NC(=O)CC[C@H](C(=O)N[C@@H](CCCCNC(C)C)C(N)=O)NC(=O)[C@@H](C)NC(=O)[C@H](Cc3ccc4ccccc4c3)NC(=O)[C@@H](CCCNC(=N)N)NC(=O)[C@H](CCCCNC(C)C)NC(=O)[C@H](Cc3ccc(O)cc3)NC2=O)cc1 [BL34L7] (K(X6)Y[Lys(iPr)][dR][2Nal][dA][dE][Lys(iPr)]-NH2; lactam N-7) | 10 to 50
